PMC12147355, “Targeted destruction of follicle stimulating hormone receptor-positive cancer cells in vitro and in vivo by a lytic peptide Phor21-FSHβ conjugate” (Molecular Medicine, 2025)
Where two headings read alike, the source gives them in different places. Ends that are not written are not given here.

Tests used:
[1] = tested on: HEK-293 xenografts; experiment: HEK-293 (FSHR-negative) cell xenografts in athymic nude male mice; assay type: in vivo; conditions: 8 mg/kg/72 h, 21 days, n = 8–12
Source text: (§1) All the mouse experiments were approved by the local ethics committee of the Medical University of Bialystok, Poland. Athymic nude males (Crl: NU(NCr)-Foxn1^nu, 8–10 weeks old, 20–23 g) purchased from Charles River Laboratories International, Inc. (Sulzfeld, Germany; RRID: SCR_003792) were housed two or three per cage and provided with sterilized pellet chow and water. The animals were maintained in a pathogen-free mouse colony at the Center of Experimental Medicine Animal Facility (Bialystok, Poland).
(§2) HEK293-FSHR, HEK-293, and LNCaP cells were treated with trypsin when they were nearly confluent and were harvested. The cells were centrifuged at 1100 rpm for 5 min and resuspended in sterile non-supplemented culture medium mixed 1:1 with the Matrigel® matrix (Corning, Corning, USA). The cell suspension (1 × 10^6 cells/0.2 ml - HEK293-FSHR and HEK-293 cells; 5 × 10^6 cells/0.2 ml – LNCaP cells) was injected subcutaneously into the interscapulum area. When the xenograft volume reached 150–200 mm^3 (5–8 days after implantation), the xenograft-bearing mice were randomly divided into treatment groups, as described in Suppl Table 2.
(§3) Three independent xenograft experiments were conducted. In the first set, we tested whether the Phor21-FSHβ33–53 C/S conjugate selectively targeted and destroyed FSHR-expressing HEK293-FSHR cells, using a proof-of-concept experiment. […]

[2] = mouse, in vivo
Experimental: (§6) In each experimental set, the mice were sacrificed 3 days after the last injection. Total blood was collected via heart puncture under isoflurane anesthesia. The animals were euthanized by cervical dislocation. Body weight, selected organs, xenograft weights/volumes, and sizes were recorded at the time of necropsy. The xenografts and testes were fixed in 10% neutral buffered formalin or snap-frozen in liquid nitrogen for further experiments.

[3] = tested on: LNCaP xenografts; experiment: LNCaP cell xenografts in athymic nude male mice; assay type: in vivo; conditions: Phor21 8 mg/kg/72 h, Phor21-FSHβ 2 or 8 mg, 21 days; for growth of LNCaP xenografts (total xenograft volume at necropsy): CTX 5 mg/kg/48h, n = 10–12
Source text: as §1, §2
Three independent xenograft experiments were conducted. In the first set, we tested whether the Phor21-FSHβ33–53 C/S conjugate selectively targeted and destroyed FSHR-expressing HEK293-FSHR cells, using a proof-of-concept experiment. CTX was used to inhibit FSH secretion, which competed with Phor21-FSHβ33–53 C/S for FSHR-binding sites (Suppl Table 2). In the second set of experiments, we tested the specificity of the Phor21-FSHβ33–53 C/S conjugate using FSHR-negative HEK293 cells xenografted into nude mice (Suppl Table 2). Finally, in the third set of in vivo experiments, we tested whether Phor21-FSHβ33–53 C/S conjugate treatment could inhibit the growth of human prostate cancer LNCaP cell xenografts (FSHR-negative cells) by destroying FSHR-positive endothelial cells in xenograft tissues, as reported previously (Radu et al. [2010]) (Suppl Table 2). Phor21-FSHβ33–53 C/S was later on addressed as Phor21-FSHβ. […]

[4] = Body and organ weights at necropsy; conditions: nude males xenografted with HEK293-FSHR cells, Fig. S4
Experimental: as §6

[5] = tested on: HEK-293 cells; experiment: Caspase Glo 3/7 apoptosis assay, HEK-293 cells; assay type: cell-based, human; conditions: CTX 20 µM, 12 h
Experimental: (§4) Caspase 3/7 activity was assessed using a Caspase Glo 3/7 kit (Promega) according to the manufacturer’s protocol. In brief, cells were seeded at 10,000/well in a 96-well plate, attached overnight, and treated with vehicle (CTR) or CTX (20 µM) for 12 h. Staurosporin (STS, 0.5 µM) was used as a positive inducer of caspase3/7-mediated apoptosis. The absolute luminescence was normalized to the vehicle-treated control value.

[6] = tested on: HEK-293 cells; experiment: CyQUANT cell proliferation assay, HEK-293 cells; assay type: cell-based, human; conditions: CTX 1, 5, 10, or 20 µM, 48 h; three independent experiments (n = 8/experiment)
Experimental: (§5) Cell proliferation was determined using a CyQUANT Cell Proliferation Assay (C7026, Life Technologies, Thermo Fisher Scientific). Prior to the experiments, HEK-293, HEK293-FSHR, and LNCaP cells were seeded in 96-well plates (7000 cells/well). After overnight incubation in the culture medium, the cells were starved for 4 h in basal non-supplemented DMEM/F12. […] After incubation, the medium was removed, and the plates with cells were frozen at −80 °C overnight. After thawing at room temperature (RT), 200 µl of CyQUANT GR dye/cell lysis buffer was added to each well and incubated for 5 min at room temperature (RT) in the dark. The fluorescence was read using a WALLAC Victor 2 1420 spectrophotometer (Perkin Elmer, Waltham, Massachusetts, USA) with ~ 480 nm excitation and ~ 520 nm emission maxima. The results were subtracted from a standard curve made from bacteriophage λ DNA (ranging from 50 pg/ml to 1.0 µg/ml) in CyQUANT GR/cell lysis buffer and are presented as absolute values.

[7] = tested on: HEK293-FSHR cells; experiment: Caspase Glo 3/7 apoptosis assay, HEK293-FSHR cells; assay type: cell-based, human; conditions: CTX 20 µM, 12 h
Experimental: as §4

[8] = tested on: HEK293-FSHR xenografts; experiment: HEK293-FSHR cell xenografts in athymic nude male mice; assay type: in vivo
Source text: as §1, §2, §3

[9] = tested on: LNCaP cells; experiment: CyQUANT cell proliferation assay, LNCaP cells; assay type: cell-based, human; conditions: CTX 1, 5, 10, or 20 µM, 48 h; three independent experiments (n = 8/experiment)
Experimental: as §5

[10] = tested on: LNCaP cells; experiment: Caspase Glo 3/7 apoptosis assay, LNCaP cells; assay type: cell-based, human; conditions: CTX 20 µM, 12 h
Experimental: as §4

[11] = tested on: HEK293-FSHR cells; experiment: CyQUANT cell proliferation assay, HEK293-FSHR cells; assay type: cell-based, human; conditions: CTX 1, 5, 10, or 20 µM, 48 h; three independent experiments (n = 8/experiment)
Experimental: Cell proliferation was determined using a CyQUANT Cell Proliferation Assay (C7026, Life Technologies, Thermo Fisher Scientific). […] After overnight incubation in the culture medium, the cells were starved for 4 h in basal non-supplemented DMEM/F12. The cells were then treated for 48 h with rhFSH (10, 100, or 1000 IU/L) or cetrorelix (CTX) (1, 5, 10, or 20 µM; Sigma-Aldrich), and 2.5% FSC was used as a positive control. After incubation, the medium was removed, and the plates with cells were frozen at −80 °C overnight. After thawing at room temperature (RT), 200 µl of CyQUANT GR dye/cell lysis buffer was added to each well and incubated for 5 min at room temperature (RT) in the dark. The fluorescence was read using a WALLAC Victor 2 1420 spectrophotometer (Perkin Elmer, Waltham, Massachusetts, USA) with ~ 480 nm excitation and ~ 520 nm emission maxima.

[12] = Serum biochemical assay (Fuji Dri-Chem NX500); assay type: in vivo; conditions: HEK293-FSHR xenograft mice (n=8-9); Fig S7
Experimental: To quantify the serum levels of glucose, γ-glutamyltransferase (GGT), alanine aminotransferase (ALT) and aspartate aminotransferase (AST), biochemical assays were performed using Fuji Dri-Chem NX500 (Fujifilm Corporation®) according to the manufacturer’s instructions (Lei et al. [2021]).

[13] = tested on: FSH; experiment: Plasma FSH immunofluorometric assay in xenografted mice; assay type: in vivo; conditions: CTX 5 mg/kg/48h
Experimental: The plasma levels of FSH were analyzed via an immunofluorometric assay using the Delfia Enhancer system (PerkinElmer, Turku, Finland) according to the protocol described by van Casteren et al. (Casteren et al. [2000]). The FSH assay sensitivity was 0.1 µg/L, with an intra-assay CV of 4.3% and an interassay CV of 9.8% at 4.8 µg/L. The rat FSH standard (a gift from Dr. Albert Parlow from the National Institute of Diabetes and Digestive and Kidney Diseases, Bethesda, Maryland, USA) was diluted in Diluent II buffer (DELFIA Diluent II, PerkinElmer) to concentrations ranging from 50 ng/ml to 0.02 ng/ml for rat FSH. Enhanced fluorescence signals (DELFIA Enhancement Solution; PerkinElmer) were measured using a Victor^2 fluorometer (PerkinElmer).

Substance | growth of HEK-293 xenografts (total xenograft volume at necropsy) [1] | spleen weight / size [2] | histology of LNCaP xenografts [3] | growth of LNCaP xenografts (total xenograft volume at necropsy) [3] | body weight [4] | testis weight [4] | caspase 3/7 activity in HEK-293 cells [5] | proliferation of HEK-293 cells [6] | caspase 3/7 activity in HEK293-FSHR cells [7] | histopathological analysis of xenograft tissues ([8]; histology, PARP1 staining) | xenograft growth compared with the control group (total xenograft volume at necropsy) ([8]; nude male mice, Phor21 8 mg/kg/72 h, Phor21-FSHβ 2 or 8 mg/kg/72 h, CTX 5 mg/kg/48h, 21 days, n = 10–12) | proliferation of LNCaP cells [9] | caspase 3/7 activity in LNCaP cells [10] | proliferation of HEK293-FSHR cells [11] | serum ALT vs CTR group [12] | serum AST vs CTR group [12] | serum GGT vs CTR group [12] | FSH secretion (plasma FSH levels) ([13]; mice with HEK293-FSHR xenografts) | FSH secretion (plasma FSH levels) ([13]; mice with LNCaP xenografts) | spleen weight / size [4]
KFAKFAKKFAKFAKKFAKFAK-NH2 [Phor21, lytic peptide Phor21 backbone, triple heptade KFAKFAK] | did not affect the growth | No significant differences | no changes | no changes | No significant differences | No significant differences |  |  |  |  |  |  |  |  |  |  |  |  |  | 
cetrorelix [CTX] |  |  |  | inhibited xenograft growth |  | significantly reduced | activated | dose-dependently decreased | activated | apoptosis | reduced xenograft growth | dose-dependently decreased | activated | dose-dependently decreased | did not affect | did not affect | did not affect | significantly decreased | inhibited FSH secretion | increased
